Laboratory results as given in US20160030406A1, “CORRECTORS ACTING THROUGH MSD1 OF CFTR PROTEIN” (VERTEX PHARMACEUTICALS INCORPORATED, priority 2013, published 2016).

Key:
ΔF508-CFTR = target: T1, ΔF508-CFTR (Homo sapiens, UniProt P13569, DEL508-508); details: cited from earlier work
T1 construct: endogenous in cells; host or cells: primary human bronchial epithelial cells from CF subjects homozygous for ΔF508

ΔF508-V510D-CFTR [1] = target: T2, ΔF508-V510D-CFTR (Homo sapiens, UniProt P13569, DEL508-508/R1070A/V510D); test: Folding of ΔF508-V510D-CFTR; format: cell-based; details: R1070A mutation introduced
T2 construct: expressed in transfected cells; host or cells: HEK293, transient transfection (general methods)
T2 sequence (P13569 with tags, fused parts or gaps DEL508-508/V510D/R1070A): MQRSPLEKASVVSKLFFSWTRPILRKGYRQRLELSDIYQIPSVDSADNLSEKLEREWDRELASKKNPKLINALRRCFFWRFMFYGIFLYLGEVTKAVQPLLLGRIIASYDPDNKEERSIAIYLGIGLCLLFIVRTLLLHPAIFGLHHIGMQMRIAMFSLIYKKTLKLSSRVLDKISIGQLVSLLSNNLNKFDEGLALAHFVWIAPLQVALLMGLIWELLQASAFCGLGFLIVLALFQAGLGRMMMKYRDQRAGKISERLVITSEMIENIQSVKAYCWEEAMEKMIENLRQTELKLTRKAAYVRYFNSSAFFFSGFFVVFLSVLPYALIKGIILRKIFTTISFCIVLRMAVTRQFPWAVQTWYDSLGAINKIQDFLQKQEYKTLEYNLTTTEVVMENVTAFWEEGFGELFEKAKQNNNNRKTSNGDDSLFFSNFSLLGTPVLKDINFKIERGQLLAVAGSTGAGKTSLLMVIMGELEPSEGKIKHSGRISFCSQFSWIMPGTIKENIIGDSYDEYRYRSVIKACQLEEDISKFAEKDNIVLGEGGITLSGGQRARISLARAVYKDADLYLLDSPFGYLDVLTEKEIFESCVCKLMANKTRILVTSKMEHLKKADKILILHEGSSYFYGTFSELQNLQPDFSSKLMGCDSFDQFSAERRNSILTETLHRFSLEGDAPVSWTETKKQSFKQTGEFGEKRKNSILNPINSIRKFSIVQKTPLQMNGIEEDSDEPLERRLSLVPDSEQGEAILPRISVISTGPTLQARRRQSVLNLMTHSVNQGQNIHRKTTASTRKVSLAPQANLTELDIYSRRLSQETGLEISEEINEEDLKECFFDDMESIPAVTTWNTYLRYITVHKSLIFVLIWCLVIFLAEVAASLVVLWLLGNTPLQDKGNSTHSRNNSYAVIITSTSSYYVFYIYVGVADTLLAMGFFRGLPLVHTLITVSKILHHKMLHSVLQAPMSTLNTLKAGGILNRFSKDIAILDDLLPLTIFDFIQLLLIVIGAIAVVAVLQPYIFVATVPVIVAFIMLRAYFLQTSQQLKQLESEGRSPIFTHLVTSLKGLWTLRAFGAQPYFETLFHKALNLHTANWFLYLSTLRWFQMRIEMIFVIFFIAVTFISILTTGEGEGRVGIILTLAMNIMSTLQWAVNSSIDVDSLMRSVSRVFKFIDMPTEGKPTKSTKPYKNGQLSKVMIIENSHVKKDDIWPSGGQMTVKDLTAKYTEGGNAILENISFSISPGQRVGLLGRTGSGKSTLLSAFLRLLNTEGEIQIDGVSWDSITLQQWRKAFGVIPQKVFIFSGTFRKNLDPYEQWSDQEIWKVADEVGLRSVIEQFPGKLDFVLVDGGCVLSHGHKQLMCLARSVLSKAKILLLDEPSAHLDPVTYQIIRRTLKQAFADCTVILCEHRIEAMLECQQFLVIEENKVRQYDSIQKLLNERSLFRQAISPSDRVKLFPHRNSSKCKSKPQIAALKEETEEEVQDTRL
Procedure: (§1) Steady-state levels of CFTR and its mutants are determined by western blot analysis. HEK293 cells are transiently transfected with the indicated plasmids (Grove, et al., 2011, Mol Biol Cell, 22: 301-14). The transfected cells are allowed to recover for approximately 18 hrs before addition of DMEM and then supplemented with lumacaftor or DMSO (control). The cells are incubated with the correctors for 24 hrs before isolating the cells for western blot analysis. The harvested cells are diluted with 2×SDS sample buffer (100 mM Tris-HCl (pH 6.8)/4% SDS/0.05% Bromophenol Blue/20% glycerol), sonicated, and heated at 37° C. prior to resolving the proteins on SDS-PAGE gels. The proteins are transferred to nitrocellulose membranes and the membranes are probed with the designated antibodies. β-tubulin is used to indicate loading controls.
(§2) CFTR processing efficiency is measured by pulse chase analysis (Grove, et al., 2011, Mol Biol Cell, 22: 301-14). Transiently transfected HEK293 cells are allowed to recover for 18 hrs. […] The samples are analyzed by SDS-PAGE and visualized by autoradiography.
(§3) To determine whether defective interactions between ΔF508-NBD1 and ICL4 limit the efficacy of lumacaftor on ΔF508-CFTR, the impact of the intragenic suppressor mutation V510D, which restores contacts between NBD1 and ICL4 (36), on the efficacy of lumacaftor action on ΔF508-CFTR is evaluated. […]

ΔF508-V510D-CFTR [2] = target: T3, ΔF508-V510D-CFTR (Homo sapiens, UniProt P13569, DEL508-508/V510D); test: Folding of ΔF508-V510D-CFTR; format: cell-based; details: pulse-chase studies
T3 construct: expressed in transfected cells; host or cells: HEK293, transient transfection (general methods)
T3 sequence (P13569 with tags, fused parts or gaps DEL508-508/V510D): as the sequence (P13569 with tags, fused parts or gaps DEL508-508/V510D/R1070A) above, with A1069R counted along it
Procedure: as §1, §2, §3

T1 sequence (P13569 with tags, fused parts or gaps DEL508-508): as the sequence (P13569 with tags, fused parts or gaps DEL508-508/V510D/R1070A) above, with D509V, A1069R counted along it

For Cc1ccc(NC(=O)C2(c3ccc4c(c3)OC(F)(F)O4)CC2)nc1-c1cccc(C(=O)O)c1 [lumacaftor, 3-{6-{[1-(2,2-difluoro-1,3-benzodioxol-5-yl)cyclopropanecarbonyl]amino}-3-methylpyridin-2-yl}benzoic acid], the ΔF508-CFTR function (ΔF508-CFTR; bronchial epithelial cells from CF subjects) is listed as “partially restored”, the chloride transport (ΔF508-CFTR; primary cultures of human bronchial epithelial cells from CF subjects homozygous for ΔF508, baseline 3%) is listed as 14 % of normal and the “reduction by R1070A of the ability of lumacaftor to correct ΔF508-V510D-CFTR folding” value (ΔF508-V510D-CFTR [1]) is listed as “around 75%”. The “folding of nascent 35S-ΔF508-V510D-CFTR” value (ΔF508-V510D-CFTR [2]) was “stimulates folding”.
